Each structure is given as a SMILES string.

Data on one compound can be found in paper PMC6934184, “Selective DNA-PKcs inhibition extends the therapeutic index of localized radiotherapy and chemotherapy” (The Journal of Clinical Investigation, 2019).

The assay deals with T1, ZAK (Homo sapiens, UniProt Q9NYL2).
T1 construct: purchased Thermo Fisher Scientific (Life Technologies) SelectScreen
Briefly: SelectScreen LanthaScreen. In kind it is binding. Conditions: read-out: % displacement. An outline of the steps:
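Percent values come from Thermo SelectScreen profiling of NU5455, combining activity and binding assays. CSF1R was run in Z'LYTE format at Km app ATP, and CAMK1 in Adapta format with ATP listed at 10.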
On the technique in general: TR-FRET usually uses a lanthanide donor and a delayed reading to cut background.

T1 sequence (Q9NYL2 whole entry): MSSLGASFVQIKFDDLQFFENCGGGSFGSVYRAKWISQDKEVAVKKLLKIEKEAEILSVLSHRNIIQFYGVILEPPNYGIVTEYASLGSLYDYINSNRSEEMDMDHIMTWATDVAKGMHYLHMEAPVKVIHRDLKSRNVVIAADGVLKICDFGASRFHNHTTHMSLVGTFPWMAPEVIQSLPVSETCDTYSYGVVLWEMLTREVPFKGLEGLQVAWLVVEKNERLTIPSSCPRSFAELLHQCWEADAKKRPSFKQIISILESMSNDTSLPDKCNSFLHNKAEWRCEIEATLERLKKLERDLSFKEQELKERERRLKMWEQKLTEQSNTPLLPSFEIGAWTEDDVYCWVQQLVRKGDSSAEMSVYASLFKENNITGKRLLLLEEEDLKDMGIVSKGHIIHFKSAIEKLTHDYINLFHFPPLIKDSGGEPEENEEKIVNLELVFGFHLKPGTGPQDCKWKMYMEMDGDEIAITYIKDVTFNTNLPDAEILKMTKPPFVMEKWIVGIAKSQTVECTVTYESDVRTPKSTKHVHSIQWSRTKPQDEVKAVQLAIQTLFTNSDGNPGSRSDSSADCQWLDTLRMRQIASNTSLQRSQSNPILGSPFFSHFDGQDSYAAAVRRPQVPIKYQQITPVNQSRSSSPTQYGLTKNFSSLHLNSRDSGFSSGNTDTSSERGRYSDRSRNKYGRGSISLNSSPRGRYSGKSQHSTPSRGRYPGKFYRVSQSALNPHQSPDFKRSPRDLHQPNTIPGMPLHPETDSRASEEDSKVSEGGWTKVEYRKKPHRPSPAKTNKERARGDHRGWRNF

Take `CN(C(=O)CN1CCOCC1)c1ccc2sc3c(-c4cccc5c(=O)cc(N6CC7CCC(C6)O7)oc45)cccc3c2c1` [NU5455]: the inhibition at 1 µM is -0.7%.
